For one experiment, the target named is V600E mutated B-RAF (Homo sapiens, UniProt P15056, V600E). Put plainly: In vitro assay for inhibition of mutant B-RAF kinase (recombinant V600E B-RAF, MEK (K97R) substrate). The settings on record: 10 nM recombinant V600E B-RAF, 1 μM MEK (K97R) substrate. In kind it is biochemical. How it is done:
(§1) The ability of compounds described herein to inhibit RAF kinase activity was determined from biochemical kinase assays using recombinant RAF proteins as known in the art.
(§2) Solutions of varying concentrations of test compounds or vehicle were added to 10 nM recombinant wild-type B-RAF or V600E mutated B-RAF proteins incubated in the presence of different concentrations of ATP and 1 μM MEK (K97R) as substrate, as previously described (Wilhelm, S. M., et al., Cancer Res., 64: 7099-7109, 2004; Mason, C. S., et al., EMBO J. 18: 2137-2148, 1999; Marais, R., et al., J. Biol. Chem., 272: 4378-4383, 1997). At least triplicate determinations for each individual test compound concentration were made and data plotted as mean±standard deviation relative to the control vehicle.

For the next experiment, the target named is wild-type B-RAF (Homo sapiens, UniProt P15056). Put plainly: In vitro assay for inhibition of B-RAF kinase (recombinant wild-type B-RAF, MEK (K97R) substrate). In kind it is biochemical. The settings on record: 10 nM recombinant wild-type B-RAF, 1 μM MEK (K97R) substrate; read-out: BRAF IC50. How it is done: as §1
Sequence of wild-type B-RAF (P15056 whole entry): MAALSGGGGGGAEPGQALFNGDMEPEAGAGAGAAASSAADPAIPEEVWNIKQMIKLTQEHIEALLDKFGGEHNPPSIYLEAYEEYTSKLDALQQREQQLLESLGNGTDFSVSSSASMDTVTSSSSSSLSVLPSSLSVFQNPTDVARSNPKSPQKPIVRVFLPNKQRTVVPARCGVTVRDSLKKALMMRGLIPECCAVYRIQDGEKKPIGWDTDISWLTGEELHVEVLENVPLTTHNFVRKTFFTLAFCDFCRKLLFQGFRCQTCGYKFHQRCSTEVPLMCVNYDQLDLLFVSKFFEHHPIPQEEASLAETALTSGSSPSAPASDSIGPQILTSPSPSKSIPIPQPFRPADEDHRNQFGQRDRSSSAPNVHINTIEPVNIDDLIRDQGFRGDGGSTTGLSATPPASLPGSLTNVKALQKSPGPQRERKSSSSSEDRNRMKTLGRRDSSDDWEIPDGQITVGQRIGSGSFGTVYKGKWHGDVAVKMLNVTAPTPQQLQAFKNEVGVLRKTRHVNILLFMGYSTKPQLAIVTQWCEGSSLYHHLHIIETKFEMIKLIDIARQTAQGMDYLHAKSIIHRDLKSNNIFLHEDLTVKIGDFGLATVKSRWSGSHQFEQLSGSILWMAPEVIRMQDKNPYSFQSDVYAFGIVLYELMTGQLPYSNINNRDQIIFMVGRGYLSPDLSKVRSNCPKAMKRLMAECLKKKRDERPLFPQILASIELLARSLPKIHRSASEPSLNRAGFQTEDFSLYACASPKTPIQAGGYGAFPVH
as §2, with “A-RAF, wild-type B-RAF,” for “B-RAF”, “wild-type C-RAF” for “V600E mutated B-RAF”
as §2

Where [1] appears, read: class symbols, read-out: IC50 (μM) V600E B-Raf.

Where two headings read alike, the source gives them in different places. Bounds are passed on as bounds.

Sequence of V600E mutated B-RAF (P15056 whole entry V600E): as the sequence (P15056 whole entry) above, with V600E counted along it

As to `O=C(O)c1cccc(-c2[nH]c(-c3ccccc3)nc2-c2ccncc2)c1` [Example 1, 3-(2-phenyl-4-(pyridin-4-yl)-1H-imidazol-5-yl)benzoic acid], the IC50 – broadly, the concentration that inhibits the measured activity by half – was 0.1 to 1 µM on V600E mutated B-RAF (setting [1]), 0.13 µM on V600E mutated B-RAF (read-out: BRAF-V600E IC50) and 3100 nM at wild-type B-RAF.

On to `CS(=O)(=O)Nc1cccc(-c2[nH]c(-c3ccccc3)nc2-c2ccncc2)c1` [Example 2, N-(3-(2-phenyl-4-(pyridin-4-yl)-1H-imidazol-5-yl)phenyl)methanesulfonamide], for which, on wild-type B-RAF, the concentration for half-maximal inhibition (IC50) came to 800 nM. Take `O=C(O)c1cccc(-c2cn(-c3ccccc3)nc2-c2ccncc2)c1` [Example 3, 3-(1-phenyl-3-(pyridin-4-yl)-1H-pyrazol-4-yl)benzoic acid]: the half-inhibitory concentration (IC50) on V600E mutated B-RAF (setting [1]) fell in the range of 0.1 to 1 µM. Still for that read-out and setting: under `CCS(=O)(=O)Nc1cccc(-c2[nH]c(-c3ccccc3)nc2-c2ccncc2)c1` [Example 4, N-(3-(2-phenyl-4-(pyridin-4-yl)-1H-imidazol-5-yl)phenyl)ethanesulfonamide] stands 1 to 10 µM; under `CCCS(=O)(=O)Nc1cccc(-c2[nH]c(-c3ccccc3)nc2-c2ccncc2)c1` [Example 5, N-(3-(2-phenyl-4-(pyridin-4-yl)-1H-imidazol-5-yl)phenyl)propane-1-sulfonamide], 1 to 10 µM.

On to `O=C(O)c1cc(F)cc(-c2[nH]c(-c3ccccc3)nc2-c2ccncc2)c1` [Example 6, 3-fluoro-5-(2-phenyl-4-(pyridin-4-yl)-1H-imidazol-5-yl)benzoic acid], for which the IC50 at V600E mutated B-RAF (setting [1]) fell in the range of 0.1 to 1 µM. Still for that read-out and setting: under `O=C(O)c1cc(-c2[nH]c(-c3ccccc3)nc2-c2ccncc2)ccc1F` [Example 7, 2-fluoro-5-(2-phenyl-4-(pyridin-4-yl)-1H-imidazol-5-yl)benzoic acid] stands 0.1 to 1 µM; under `O=C(O)c1cccc(-c2[nH]c(-c3ccccc3)nc2-c2ccncc2)c1F` [Example 8, 2-fluoro-3-(2-phenyl-4-(pyridin-4-yl)-1H-imidazol-5-yl)benzoic acid], 0.1 to 1 µM; under `O=C(O)c1ccc(F)c(-c2[nH]c(-c3ccccc3)nc2-c2ccncc2)c1` [Example 9, 4-fluoro-3-(2-phenyl-4-(pyridin-4-yl)-1H-imidazol-5-yl)benzoic acid], 1 to 10 µM. On the same count and under the same terms, for `O=C(O)c1cc(-c2[nH]c(-c3ccccc3)nc2-c2ccncc2)ccc1Cl` [Example 10, 2-chloro-5-(2-phenyl-4-(pyridin-4-yl)-1H-imidazol-5-yl)benzoic acid] the value was less than 0.1 µM.

Take `CS(=O)(=O)Nc1cc(-c2[nH]c(-c3ccccc3)nc2-c2ccncc2)ccc1Cl` [Example 12, N-(2-chloro-5-(2-phenyl-4-(pyridin-4-yl)-1H-imidazol-5-yl)phenyl)methanesulfonamide]: the 50% inhibitory concentration (IC50) on V600E mutated B-RAF (setting [1]) lay within 0.1 to 1 µM. Still for that read-out and setting: under `O=C(O)c1cccc(-c2nn(-c3ccccc3)cc2-c2ccncc2)c1` [Example 13, 3-(1-phenyl-4-(pyridin-4-yl)-1H-pyrazol-3-yl)benzoic acid] stands 0.1 to 1 µM. Still for that read-out and setting: under `O=C(O)c1cc(Cl)cc(-c2[nH]c(-c3ccccc3)nc2-c2ccncc2)c1` [Example 14, 3-chloro-5-(2-phenyl-4-(pyridin-4-yl)-1H-imidazol-5-yl)benzoic acid] stands 0.1 to 1 µM; under `O=C(O)c1cc(-c2cn(-c3ccccc3)nc2-c2ccncc2)ccc1Cl` [Example 15, 2-chloro-5-(1-phenyl-3-(pyridin-4-yl)-1H-pyrazol-4-yl)benzoic acid], less than 0.1 µM; under `NC(=O)c1cccc(-c2[nH]c(-c3ccccc3)nc2-c2ccncc2)c1` [Example 21, 3-(2-phenyl-4-(pyridin-4-yl)-1H-imidazol-5-yl)benzamide], 1 to 10 µM. On to `Cc1ccc(-c2[nH]c(-c3ccccc3)nc2-c2ccncc2)cc1C(=O)O` [Example 27, 2-methyl-5-(2-phenyl-4-(pyridin-4-yl)-1H-imidazol-5-yl)benzoic acid], for which the half-inhibitory concentration (IC50) on V600E mutated B-RAF (setting [1]) was 0.1 to 1 µM.
